Data: PMC6429262, “Design and Synthesis of Novel Anti-Proliferative Emodin Derivatives and Studies on their Cell Cycle Arrest, Apoptosis Pathway and Migration” (Molecules, 2019)

Assays:
Assay type in all cases: cell-based, human
HepG2 cells = test: CellTiter-Glo Luminescent Cell Viability Assay, HepG2; details: for IC50: 48 h, mean of three independent experiments
MCF-7 cells = test: CellTiter-Glo Luminescent Cell Viability Assay, MCF-7; details: for IC50: MCF-7 cells, 48 h, mean of three independent experiments
Bax = test: Western blot, Bax; details: 48 h
Experimental: (§1) Total cell lysates from cultured HepG2 cells treated with different concentrations of compound 7a for 48 h were obtained by lysing the cells in ice-cold RIPA buffer (1 PBS, 1% NP-40, 0.5% sodium deoxycholate and 0.1% SDS) containing […] PMSF, 5 mg/mL aprotinin, 5 mg/mL leupeptin, 5 mg/mL pepstatin and […] NaF. After centrifugation at 12,000 rpm for 10 min, the protein in the supernatant was quantified by the Bradford method (BIO-RAD, Hercules, CA, USA) using a Multimode Varioscan instrument (Thermo Fischer Scientific, Waltham, MA, USA). Twenty micrograms of protein per lane was applied in 12% SDS polyacrylamide gel. After electrophoresis, the protein was transferred to a polyvinylidine difluoride membrane (Amersham Biosciences, Marlborough, MA, USA). The membrane was blocked at room temperature for 2 h in TBST containing 5% blocking powder (Santa Cruz, Dallas, TX, USA). The membrane was washed with TBST for 5 min, and the primary antibody was added and incubated at 4 °C overnight (O/N). Bax (5023, CST, Danvers, MA, USA), Bcl-2 (15071, CST), cytochrome c (4280, CST), procaspase-9 (AB138412, Abcam, Cambridge, MA, USA), procaspase-3 (AB32150, Abcam), caspase-3 (66470-2-lg, Proteintech Group, Rosemont, IL, USA) and GAPDH (AB8245, Abcam) antibodies were employed. After three TBST washes, the membrane was incubated with the corresponding horseradish peroxidase-labeled secondary antibody (1:5000) (Santa Cruz) at room temperature for 2 h. Membranes were washed with TBST for 15 min five times and the protein blots were visualized with chemiluminescence reagent (Thermo Fischer Scientific Ltd.). The X-ray films were developed with a developer and fixed with fixer solution. The grey levels were analyzed using ImageQuant LAS 4000 system (GE, Marlborough, MA, USA).

Bcl-2 = test: Western blot, Bcl-2; details: 48 h
Experimental: as §1

cytochrome c = test: Western blot, cytochrome c; details: 48 h
Experimental: as §1

procaspase-3 = test: Western blot, procaspase-3; details: 48 h
Experimental: as §1

procaspase-9 = test: Western blot, procaspase-9; details: 48 h
Experimental: as §1

caspase-3 = test: Western blot, cleaved caspase-3; details: 48 h
Experimental: as §1

Cc1cc(O)c2c(c1)C(=O)c1cc(OCCCOC(=O)[C@@H](C)N)cc(O)c1C2=O.O=C(O)C(F)(F)F [Compound 7a, (R)-1-(3-(4,5-Dihydroxy-7-methyl-9,10-dioxo-9,10-dihydroanthracen-2-yloxy)propoxy)-1-oxopropan-2-aminium 2,2,2-trifluoroacetate]
IC50 (HepG2 cells; HepG2 cells): 6.47 ± 0.21 µM | enhancement of anti-proliferative activity compared to emodin (HepG2 cells; HepG2 cells, IC50 ratio to parent compound emodin): 8.8 fold | IC50 (HepG2 cells; Homo sapiens, HepG2, 48 h, HepG2 cells): 4.95 ± 0.14 µM | Selectivity Index HepG2 (HepG2 cells; IC50 on normal cells (L02)/IC50 on cancer cells (HepG2)): 2.82 | IC50 (MCF-7 cells; Homo sapiens, MCF7, 48 h): 5.92 ± 0.36 µM | Selectivity Index MCF-7 (MCF-7 cells; IC50 on normal cells (L02)/IC50 on cancer cells (MCF-7)): 2.36 | IC50 (MCF-7 cells): 6.47 ± 0.18 µM | Relative expression level, Bax (Bax; HepG2, 2.5 μM): 1.180 ± 0.046 | Relative expression level, Bax (Bax; HepG2, 5 μM): 1.347 ± 0.081 | Relative expression level, Bax (Bax; HepG2, 10 μM): 1.593 ± 0.112 | Relative expression level, Bcl-2 (Bcl-2; HepG2, 2.5 μM): 0.685 ± 0.025 | Relative expression level, Bcl-2 (Bcl-2; HepG2, 5 μM): 0.312 ± 0.012 | Relative expression level, Bcl-2 (Bcl-2; HepG2, 10 μM): 0.268 ± 0.022 | Relative expression level, cytochrome c (cytochrome c; HepG2, 2.5 μM): 1.407 ± 0.015 | Relative expression level, cytochrome c (cytochrome c; HepG2, 5 μM): 1.663 ± 0.110 | Relative expression level, cytochrome c (cytochrome c; HepG2, 10 μM): 2.220 ± 0.387 | Relative expression level, Full length procaspase-3 (procaspase-3; HepG2, 2.5 μM): 0.78 ± 0.012 | Relative expression level, procaspase-3 (procaspase-3; HepG2, 2.5 μM): 0.510 ± 0.132 | Relative expression level, Full length procaspase-3 (procaspase-3; HepG2, 5 μM): 0.220 ± 0.019 | Relative expression level, procaspase-3 (procaspase-3; HepG2, 5 μM): 0.317 ± 0.031 | Relative expression level, Full length procaspase-3 (procaspase-3; HepG2, 10 μM): 0.152 ± 0.009 | Relative expression level, procaspase-3 (procaspase-3; HepG2, 10 μM): 0.170 ± 0.053 | Relative expression level, procaspase-9 (procaspase-9; HepG2, 2.5 μM): 0.600 ± 0.082 | Relative expression level, procaspase-9 (procaspase-9; HepG2, 5 μM): 0.297 ± 0.058 | Relative expression level, procaspase-9 (procaspase-9; HepG2, 10 μM): 0.223 ± 0.029 | Relative expression level, Cleaved Caspase-3 (caspase-3; HepG2, 2.5 μM): 0.056 ± 0.011 | Relative expression level, Cleaved Caspase-3 (caspase-3; HepG2, 5 μM): 0.143 ± 0.013 | Relative expression level, Cleaved Caspase-3 (caspase-3; HepG2, 10 μM): 0.185 ± 0.026
